The supplement of paper PMC9663587

Tests used:
[1] = compound: CC(C)n1nc(-c2ccc3oc(N)nc3c2)c2c(N)ncnc21 [INK128/MLN0128]
[2] = compound: CCc1cnn2c(NCc3ccc[n+]([O-])c3)cc(N3CCCC[C@H]3CCO)nc12
[3] = compound: Cc1nc(-c2cn3c(n2)-c2ccc(-c4cnn(C(C)(C)C(N)=O)c4)cc2OCC3)n(C(C)C)n1 [Taselisib/GDC0032]
[4] = compound: COc1cccc2c1C(=O)c1c(O)c3c(c(O)c1C2=O)C[C@@](O)(C(=O)CO)C[C@@H]3O[C@H]1C[C@H](N)[C@H](O)[C@H](C)O1 [Doxorubicin]
[5] = compound: CCC1=CN=CN=C1N2CCN(CC2)CC3=NC4=C(N3)C=C(C=C4)C(F)(F)F
[6] = compound: CN(C)C/C=C/C(=O)NC1=CC=C(C=C1)C(=O)NC2=CC=CC(=C2)NC3=NC=NC(=C3)C4=CNC5=CC=CC=C54 [THZ-P1-2]
[7] = compound: CNc1nc(-c2ccc3c(N)n[nH]c3c2)cc(N2C[C@@H](C(=O)NC3CCCCC3)CC[C@H]2C)n1
[8] = compound: CC(C)NC[C@@H](C(=O)N1CCN(c2ncnc3c2[C@H](C)C[C@H]3O)CC1)c1ccc(Cl)cc1 [Ipatasertib/GDC0068]
[9] = compound: O=C(c1cc(Cc2n[nH]c(=O)c3ccccc23)ccc1F)N1CCN(C(=O)C2CC2)CC1 [Olaparib/AZD2281]
[10] = compound: CC1=CN2C(=O)C=C(N=C2C(=C1)C(C)NC3=CC=CC=C3)N4CCOCC4 [TGX221]
[11] = compound: CN(C)CC[C@H](CSc1ccccc1)Nc1ccc(S(=O)(=O)NC(=O)c2ccc(N3CCN(Cc4ccccc4-c4ccc(Cl)cc4)CC3)cc2)cc1[N+](=O)[O-] [ABT-737]
[12] = compound: CC[C@@H]1C(=O)N(C)c2cnc(Nc3ccc(C(=O)N[C@H]4CC[C@H](N5CCN(CC6CC6)CC5)CC4)cc3OC)nc2N1C(C)C [Volasertib/BI6727]
[13] = compound: CNC(=O)c1cccc(-c2ccc3c(N4CCOC[C@@H]4C)nc(N4CCOC[C@@H]4C)nc3n2)c1 [AZD2014]
[14] = compound: C1=CC2=C(C=CC(=C2)C=C3C(=O)NC(=NCC4=CC=CS4)S3)N=C1 [R0-3306]
[15] = compound: Cc1nn(C)c(COc2ccc(N3CCN(S(=O)(=O)N(C)C)CC3)cc2)c1-c1cccc2c(CCCOc3cccc4ccccc34)c(C(=O)O)n(CCN3CCOCC3)c12
[16] = compound: Cc1nc(Nc2ncc(C(=O)Nc3c(C)cccc3Cl)s2)cc(N2CCN(CCO)CC2)n1 [Dasatinib]
[17] = compound: CN(C)C/C=C/C(=O)Nc1ccc(O[C@@H]2CCC[C@@H](Nc3ncc(Cl)c(-c4c[nH]c5ccccc45)n3)C2)cc1 [BSJ-01-175]
[18] = compound: CN1CC[C@H](c2c(O)cc(O)c3c(=O)cc(-c4ccccc4Cl)oc23)[C@H](O)C1 [Flavopiridol]
[19] = compound: CCOc1cc2ncc(C#N)c(Nc3ccc(OCc4ccccn4)c(Cl)c3)c2cc1NC(=O)/C=C/CN(C)C [Neratinib/HKI272]
[20] = compound: NC(=O)Nc1cc(-c2cccc(F)c2)sc1C(=O)N[C@H]1CCCNC1 [AZD7762]
[21] = compound: C1=CC(=CC(=C1)N2C(=O)C=CC3=CN=C4C=CC(=CC4=C32)C5=CN=C(C=C5)N)C(F)(F)F [Torin2]
[22] = compound: O=C1NC(=O)[C@@H](c2cn3c4c(cccc24)CCC3)[C@@H]1c1c[nH]c2ccccc12 [Tivantinib/ARQ197]
[23] = compound: CN(C)C(=O)c1cc2cnc(Nc3ccc(N4CCNCC4)cn3)nc2n1C1CCCC1 [LEE011/Ribociclib]
[24] = compound: Nc1cc(C(F)(F)F)c(-c2cc(N3CCOCC3)nc(N3CCOCC3)n2)cn1 [Buparlisib/NVP-BKM120]
[25] = compound: CN1CCN(C(=O)c2ccc3cc(CCNc4ncnc5ccc(C#N)cc45)ccc3c2)CC1 [senexin b]
[26] = compound: CC(=O)O[C@H]1C(=O)[C@@]2(C)[C@H]([C@H](OC(=O)c3ccccc3)[C@]3(O)C[C@H](OC(=O)[C@H](O)[C@@H](NC(=O)c4ccccc4)c4ccccc4)C(C)=C1C3(C)C)[C@]1(OC(C)=O)CO[C@@H]1C[C@@H]2O [Paclitaxel]
[27] = compound: Cc1cc(Nc2ncc(Cl)c(Nc3ccccc3S(=O)(=O)C(C)C)n2)c(OC(C)C)cc1C1CCNCC1 [Ceritinib/LDK378]
[28] = compound: CC(=O)c1c(C)c2cnc(Nc3ccc(N4CCNCC4)cn3)nc2n(C2CCCC2)c1=O
[29] = compound: CS(=O)(=O)N1CCN(Cc2cc3nc(-c4cccc5[nH]ncc45)nc(N4CCOCC4)c3s2)CC1 [Pictilisib/GDC0941]
[30] = compound: COc1cc2nccc(Oc3ccc(NC(=O)C4(C(=O)Nc5ccc(F)cc5)CC4)cc3)c2cc1OC [Cabozantinib]
[31] = compound: CCNC(=O)c1noc(-c2cc(C(C)C)c(O)cc2O)c1-c1ccc(CN2CCOCC2)cc1 [Luminespib/NVP-AUY922]
[32] = compound: CC(=O)c1c(C)c2cnc(Nc3ccc(N4CCN(CCOCCOCCOCCNC(=O)COc5cccc6c5C(=O)N(C5CCC(=O)NC5=O)C6=O)CC4)cn3)nc2n(C2CCCC2)c1=O [BSJ-03-123]
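Further: breast cancer and non-malignant breast epithelial cell lines, Deep Dye Drop or Dye Drop imaging, nine half-log doses, GR normalized to time-zero plates and DMSO-only controls.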

Cell Line | GR50, 72 h [1] [µM] | GR50, 72 h [2] [µM] | GR50, 72 h [3] [µM] | GR50, 72 h [4] [µM] | GR50, 72 h [5] [µM] | GR50, 72 h [6] [µM] | GR50, 72 h [7] [µM] | GR50, 72 h [8] [µM] | GR50, 72 h [9] [µM] | GR50, 72 h [10] [µM] | GR50, 72 h [11] [µM] | GR50, 72 h [12] [µM] | GR50, 72 h [13] [µM] | GR50, 72 h [14] [µM] | GR50, 72 h [15] [µM] | GR50, 72 h [16] [µM] | GR50, 72 h [17] [µM] | GR50, 72 h [18] [µM] | GR50, 72 h [19] [µM] | GR50, 72 h [20] [µM] | GR50, 72 h [21] [µM] | GR50, 72 h [22] [µM] | GR50, 72 h [23] [µM] | GR50, 72 h [24] [µM] | GR50, 72 h [25] [µM] | GR50, 72 h [26] [µM] | GR50, 72 h [27] [µM] | GR50, 72 h [28] [µM] | GR50, 72 h [29] [µM] | GR50, 72 h [30] [µM] | GR50, 72 h [31] [µM] | GR50, 72 h [32] [µM]
MDAMB468 | 0.0235 | 0.0156 | 2.35 | 0.00542 | 4.17 | 3.59 | > 10 | 2.36 | 7.92 | > 10 | 6.03 | 0.0021 | 0.523 | 4.57 | > 10 | 4.41 | 0.00931 | 0.173 | 0.158 | 0.287 | 0.016 | 0.307 | > 10 | 0.832 | 2.04 | 0.00135 | 0.767 | > 3.16 | 2.33 | 8.97 | 0.00483 | 1.71
MGH312 | 0.00245 | 0.0108 | 0.0386 | 0.00621 | 4.84 | 4.45 | 0.0356 | 0.037 | > 10 | 0.155 | 2.19 | 0.00804 | < 0.001 | 5.42 | > 10 | 0.00371 | 0.00657 | 0.0997 | 0.168 | 0.202 | 0.00596 | 0.379 | > 10 | 0.347 | 0.511 | 0.00266 | 1.23 | > 3.16 | 0.0806 | 6.89 | 0.00379 | 4.41
PDX1258 | 0.044 | 0.0116 | 0.996 | 0.00914 | > 10 | 0.492 | > 10 | 4.37 | > 10 | > 10 | > 10 | 0.00743 | 0.401 | 5.5 | > 10 | 0.0216 | 0.00362 | 0.0943 | 1.1 | 0.0152 | 0.0356 | 0.397 | > 10 | 1.36 | > 10 | 0.00215 | 2.08 | > 3.16 | 1.7 | 8.59 | 0.0101 | 4.91
PDXHCI002 | 0.169 | 0.0122 | 0.6 | 0.00405 | > 10 | > 10 | > 10 | > 10 | 3.93 | > 10 | 5.62 | 0.00369 | 9.69 | 6.43 | > 10 | 0.509 | 0.00607 | 0.114 | 0.162 | 0.0705 | 0.123 | 0.238 | > 10 | 1.44 | > 10 | 0.00249 | 0.338 | 0.127 | 2.25 | 7.21 | 0.00439 | 1.64
SKBR3 | 0.00265 | 0.00682 | 0.00617 | 0.00673 | > 10 | 4.25 | 2.11 | 3.32 | > 10 | > 10 | > 10 | 0.00545 | < 0.001 | 4.77 | > 10 | 3.65 | 0.00832 | 0.132 | 0.00165 | 0.0203 | 0.00361 | 0.273 | 6.14 | 0.14 | > 10 | 0.00191 | 0.985 | 0.176 | 0.114 | 9.69 | 0.00228 | 1.02
SUM52PE | 0.0172 | 0.0196 | 0.0267 | 0.049 | 8 | 6.06 | 8.3 | 6.8 | > 10 | > 10 | 9.12 | 0.0198 | 0.0163 | 5.05 | 8.59 | 0.238 | 0.0947 | 0.234 | 3.11 | 0.0752 | 0.0154 | 0.33 | > 10 | 0.738 | > 10 | 0.00165 | > 10 | 0.564 | 0.477 | 0.736 | 0.00584 | 3.42
SUM159 | 0.0561 | 0.0169 | 0.182 | 0.021 | > 10 | 6.79 | > 10 | > 10 | > 10 | > 10 | > 10 | 0.0247 | 0.176 | 7.13 | > 10 | > 10 | 0.0681 | 0.127 | > 3.16 | 0.834 | 0.0417 | 0.408 | 9.31 | 2.21 | > 10 | 0.00542 | 2.1 | 1.73 | 4.53 | 7.15 | 0.00945 | 1.94
